# Experiments:
# [1] = tested on: spinal astrocytes (GFAP) in the dorsal horn of the spinal cord; experiment: Spinal astrocyte activation (GFAP immunofluorescence) after intrauterine LPS; assay type: in vivo, mouse (Balb/C); settings: intrauterine, mixed with LPS 100 μg/kg on first day of estrus and alone the subsequent day, 3 estrous cycles; amitriptyline 28 μg/kg, TAK-242 36 μg/kg; vs LPS
# Description: (§1) Group 1 included twelve mice with 20 μl endotoxin-free saline introduced to the uterus on the first day of estrus and the subsequent day over 3 consecutive estrous cycles. Group 2 included twelve mice with LPS (100 μg/kg) instilled in the uterus on the first day of estrus and saline injected on the subsequent day over 3 consecutive estrous cycles. Group 3 included twelve mice with LPS (100 μg/kg) mixed with amitriptyline (20 μl of a 100 μM solution, equivalent to 28 μg/kg) instilled in the uterus on the first day of estrus, and amitriptyline alone instilled on the subsequent day over 3 consecutive estrous cycles. Group 4 included 14 mice with LPS (100 μg/kg) mixed with TAK-242 (20 μl of a 100 μM solution, equivalent to 36 μg/kg) instilled on the first day of estrus and TAK-242 alone instilled on the subsequent day over 3 consecutive estrous cycles.
# (§2) The investigation involved the instillation of 20 ul of an endotoxin-free 0.9% saline solution into the uterus of all animals on the first day of estrus and the subsequent day during 3 consecutive estrous cycles. Additional agents added to the saline were included according to the groups outlined below. Where LPS is administered, this was done on only 1 day per estrous cycle.
# (§3) Where amitriptyline or TAK-242 was administered, this is on both the first day of estrus and the subsequent day.
# (§4) The spinal cord was assessed using immunohistochemistry techniques across levels T10, T11, T12, T13, L1, L2, L3, L4, L5, L6, S1 and S2 for Groups 1 and 2, where T represents the thoracic segment of the spinal cord, L represents the lumbar segment of the spinal cord and S represents the sacral segment of the spinal cord.
# as §4, with “levels” for “levels T10, T11,”, “L6, S” for “L6, S1”, “Groups 3” for “Groups 1”, “and 4,” for “and 2,”, “cord. […]” for “cord.”
# [2] = tested on: spinal microglia (Iba1) in the dorsal horn of the spinal cord; experiment: Spinal microglial activation (Iba1 immunofluorescence) after intrauterine LPS; assay type: in vivo, mouse (Balb/C); settings: intrauterine, mixed with LPS 100 μg/kg on first day of estrus and alone the subsequent day, 3 estrous cycles; amitriptyline 28 μg/kg, TAK-242 36 μg/kg; vs LPS
# Description: as §1, §2, §3, §4
# as §4, with “levels” for “levels T10, T11,”, “L6, S” for “L6, S1”, “Groups 3” for “Groups 1”, “and 4,” for “and 2,”, “cord. […]” for “cord.”
# Human NOD2 = biological target: T1, Human NOD2 (Homo sapiens, UniProt Q9HC29); experiment: Human NLR antagonist screening, NF-κB SEAP reporter in HEK293 cells; assay type: cell-based; settings: antagonist mode, Ami 1 μM, +L18-MDP 50 ng/mL, No Sample 18, Control− 1
# T1 construct: expressed in transfected cells; host or cells: HEK293
# Description: Toll-Like Receptor (TLR), NOD-Like Receptor (NLR) and C-Type Lectin Receptor (CLR) stimulation were tested by assessing NF-κB activation in HEK293 cells expressing a given TLR, NLR or CLR. The activity of the test articles was tested at one concentration and compared to control ligands. These steps were performed in triplicate. hNOD2: L18-MDP at 100 ng/mL Antagonist: 50 ng/mL. In a 96-well plate (200 μL total volume) containing the appropriate cells (50,000-75,000 cells/well), 20 μL of the test article or the positive control ligand was added to the wells. For the antagonist assay, the test article was incubated with the cells, at 37° C. with 5% CO2, for 30 minutes prior to the addition of the positive control ligand to the wells. The media added to the wells was designed for the detection of NF-κB induced SEAP expression. After a 16-24 hr incubation the optical density (OD) was read at 650 nm on a Molecular Devices SpectraMax 340PC absorbance detector. Fold induction (ratio of average induced value to average non-induced value) was determined for each TLR, NOD1, NOD2, Dectin-1a, Dectin-1b.
# [3] = tested on: spinal glial cells in the dorsal horn of the spinal cord; experiment: Spinal glial activation (astrocytes and microglia) after intrauterine LPS, overall statements; assay type: in vivo, mouse (Balb/C); settings: for spinal glial activation induced by intrauterine LPS: intrauterine co-administration with LPS
# From the text: In the model, we investigated whether intrauterine LPS administration would cause an activation of the innate immune system in the uterus, replicating the inflammation often seen in dysmenorrhea, with possible association with pain. As inflammation is intrinsically linked with pain, we investigated whether activation of the innate immune system in the uterus would induce activation of spinal glial cells (central nervous system immune cells) in the dorsal horn of the spinal cord. Spinal glial cells include astrocytes and microglia. Activation of spinal glial cells was assessed using immunoflourescent staining with GFAP (astrocytes) or Iba1 (microglia). We then investigated if spinal glial activation is attenuated by the innate immune system blocking drugs amitriptyline and TAK-242.
# as §1
# Determination of spinal glial response was then assessed using immunofluorescence to confirm the validity of the experimental model.
# Determination of the ability of TLR4 antagonists to block the activation of spinal astrocytes and microglia induced by intra-uterine instillation of LPS was assessed.
# An assessment of glial activation was made using immunochemistry techniques including Ionized calcium binding adaptor molecule 1 (Iba1) expression and glial fibrillary-associated protein (GFAP) variability in the dorsal horn. Iba1 expression is a marker for microglial activation, and GFAP is a marker for astrocyte activation. The spinal cord levels chosen are consistent with the level of spinal afferent neurons associated with the pelvis, including the uterus in the mouse.
# [4] = tested on: mice with intrauterine LPS; experiment: Facial Grimace Scale 24 hours after final LPS stimulation; assay type: in vivo, mouse (Balb/C); settings: LPS in conjunction with amitriptyline or TAK242, 24 hours after final LPS stimulation
# Description: as §1
# 24 hours following the final LPS stimulation mice were subjected to assessment for the presence or absence of pain. This was assessed using the following tests:
# Facial Grimace Scale: Photos of mice in their home cage will be taken, to score their facial Grimace and this was quantified and compared between groups. For further information see: http://www.nature.com/nmeth/journal/v7/n6/full/nmeth.1455.html.
# [5] = taken orally; cited from earlier work
# T1 sequence (Q9HC29 whole entry): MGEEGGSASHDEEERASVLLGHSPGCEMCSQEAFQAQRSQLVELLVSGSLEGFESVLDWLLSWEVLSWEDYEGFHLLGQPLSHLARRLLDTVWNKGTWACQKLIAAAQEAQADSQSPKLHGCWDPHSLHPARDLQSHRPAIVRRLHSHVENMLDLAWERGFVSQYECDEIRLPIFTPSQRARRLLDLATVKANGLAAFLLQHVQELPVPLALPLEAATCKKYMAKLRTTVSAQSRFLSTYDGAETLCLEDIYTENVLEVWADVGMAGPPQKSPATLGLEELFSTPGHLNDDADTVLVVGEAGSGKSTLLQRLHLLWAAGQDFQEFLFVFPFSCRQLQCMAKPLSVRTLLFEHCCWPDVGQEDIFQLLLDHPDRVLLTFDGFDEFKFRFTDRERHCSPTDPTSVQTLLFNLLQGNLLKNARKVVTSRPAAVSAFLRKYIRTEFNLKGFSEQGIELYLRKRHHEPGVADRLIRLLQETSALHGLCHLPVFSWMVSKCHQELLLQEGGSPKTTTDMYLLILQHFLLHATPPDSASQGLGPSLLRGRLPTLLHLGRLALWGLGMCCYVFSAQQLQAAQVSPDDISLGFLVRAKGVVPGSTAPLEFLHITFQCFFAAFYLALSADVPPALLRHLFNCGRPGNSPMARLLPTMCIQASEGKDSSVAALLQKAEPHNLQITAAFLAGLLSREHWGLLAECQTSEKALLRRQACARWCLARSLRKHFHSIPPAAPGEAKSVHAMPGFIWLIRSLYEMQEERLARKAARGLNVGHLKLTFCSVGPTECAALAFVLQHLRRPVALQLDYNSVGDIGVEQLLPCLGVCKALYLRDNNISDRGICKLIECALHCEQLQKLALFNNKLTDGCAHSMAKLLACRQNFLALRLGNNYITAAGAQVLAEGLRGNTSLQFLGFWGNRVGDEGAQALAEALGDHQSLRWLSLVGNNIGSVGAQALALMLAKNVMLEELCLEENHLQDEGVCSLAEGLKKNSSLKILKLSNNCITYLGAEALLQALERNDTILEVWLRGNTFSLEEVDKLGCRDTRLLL
structure (smiles),measurement,setting,value
CN(C)CCC=C1c2ccccc2CCc2ccccc21 [Amitriptyline],"astrocytic reactivity (GFAP staining), impact of intrauterine LPS at multiple levels of the spinal cord",[1],reduced astrocytic reactivity to below basal levels
same,"microglial reactivity (Iba1 staining), impact of intrauterine LPS at multiple levels of the spinal cord",[2],reduced microglial reactivity to basal levels
same,Fold Induction,Human NOD2,slight inhibitory effect
same,Fold Induction,Human NOD2; listed as Ami,17
same,spinal glial activation induced by intrauterine LPS,[3],additional activity reducing spinal glial activation above TAK-242 alone
same,spinal glial activation induced by intrauterine LPS,[3]; listed as amitriptyline,prevented
same,dose effective at reducing spinal glial activation,"[3]; mouse model, intrauterine administration",0.027 mg/kg
same,Grimace scores,[4],reduced these scores
same,side effects,[5],"drowsiness, dry mouth, blurred vision, pupil dilation, constipation, weight and urinary retention"
